Source: patent US5434246A, “Parathyroid hormone derivatives” (Takeda Chemical Industries, Ltd., priority 1992, dated 1995)
Square brackets hold non-standard residues; d marks the D form. Ends that are not written are not given here. Peptide text beside a SMILES is read from it. Orn = NCCC[C@H](N)C(=O)O

Biological target: T1, PTH receptor (Mus musculus, UniProt P41593)
T1 construct: a mouse cranial bone-derived osteoblast-like cell strain, MC3T3-EI cells; endogenous in cells; host or cells: MC3T3-E1 mouse osteoblast-like cells
T1 sequence (P41593 27-591): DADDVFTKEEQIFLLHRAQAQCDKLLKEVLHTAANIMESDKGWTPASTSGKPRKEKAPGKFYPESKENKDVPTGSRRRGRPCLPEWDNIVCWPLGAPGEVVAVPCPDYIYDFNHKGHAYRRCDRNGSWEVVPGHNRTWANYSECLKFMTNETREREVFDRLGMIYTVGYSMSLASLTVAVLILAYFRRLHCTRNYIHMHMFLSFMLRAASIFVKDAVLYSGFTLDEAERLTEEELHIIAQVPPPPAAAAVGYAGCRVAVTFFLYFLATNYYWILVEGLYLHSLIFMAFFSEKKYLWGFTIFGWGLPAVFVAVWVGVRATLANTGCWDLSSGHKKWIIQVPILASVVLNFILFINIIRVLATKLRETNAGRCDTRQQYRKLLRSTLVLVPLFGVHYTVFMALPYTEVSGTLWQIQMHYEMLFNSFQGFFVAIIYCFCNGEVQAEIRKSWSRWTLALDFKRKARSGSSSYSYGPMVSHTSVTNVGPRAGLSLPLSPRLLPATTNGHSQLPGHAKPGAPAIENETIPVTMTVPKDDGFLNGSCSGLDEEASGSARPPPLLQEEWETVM
Assay: cAMP production in MC3T3-EI osteoblast-like cells (biological activity of PTH(1-34) derivatives)
Assay type: cell-based
Details: 0.01-100 nM derivative, room temperature 30 minutes, hPTH(1-34) standard = 1.00
Experimental: The biological activity of the PTH (1-34) derivatives was evaluated by a modified version of the method reported by Shigeno et al. in The Journal of Biological Chemistry 263, 18369-18377 (1988). A culture solution (Hank's solution, containing 20 mM N-2-hydroxyethylpiperazine-N'-2-ethanesulfonic acid-(HEPES), 0.1% bovine serum albumin and 0.5 mM isobutylmethyl-xanthine) containing a 0.01, 0.1, 1, 10 or 100 nM derivative was added in an amount of 100 μl to a mouse cranial bone-derived osteoblast-like cell strain, MC3T3-EI cells, cultivated on a 96-well multiplate (Nunclon, Nunc), followed by reaction at room temperature for 30 minutes. After addition of 100 μl of 0.2N hydrochloric acid, the mixture was immersed in boiling water for 2.5 minutes, and cyclic adenosine monophosphate (cAMP) produced by a PTH receptor was extracted from the cells. The total cAMP in the culture solution and the cells was assayed using a commercial radioimmunoassay kit (cyclic AMP [^125 I] kit "Du Pont-Daiichi", Daiichi Kagaku Yakuhin).

| Molecule | Biological Activity, Represented by Relative Activity to hPTH(1-34) |
| --- | --- |
| CC[C@H](C)[C@H](NC(=O)[C@H](CCC(=O)O)NC(=O)[C@H](CO)NC(=O)[C@@H](NC(=O)[C@@H](N)CO)C(C)C)C(=O)N[C@@H](CCC(N)=O)C(=O)N[C@@H](CC(C)C)C(=O)N[C@@H](CCSC)C(=O)N[C@@H](Cc1c[nH]cn1)C(=O)N[C@@H](CC(N)=O)C(=O)N[C@@H](CC(C)C)C(=O)NCC(=O)N[C@@H](CCCCN)C(=O)N[C@@H](Cc1c[nH]cn1)C(=O)N[C@@H](CC(C)C)C(=O)N[C@H](CCCCN)C(=O)N[C@@H](CO)C(=O)N[C@@H](CCSC)C(=O)N[C@@H](CCC(=O)O)C(=O)N[C@@H](CCCNC(=N)N)C(=O)N[C@H](C(=O)N[C@@H](CCC(=O)O)C(=O)N[C@@H](Cc1c[nH]c2ccccc12)C(=O)N[C@@H](CC(C)C)C(=O)N[C@@H](CCCNC(=N)N)C(=O)N[C@@H](CCCCN)C(=O)N[C@@H](CCCCN)C(=O)N[C@@H](CC(C)C)C(=O)N[C@@H](CCC(N)=O)C(=O)N[C@@H](CC(=O)O)C(=O)N[C@H](C(=O)N[C@@H](Cc1c[nH]cn1)C(=O)N[C@@H](CC(N)=O)C(=O)N[C@@H](Cc1ccccc1)C(=O)O)C(C)C)C(C)C [[D-Lys^16]hPTH(1-34)] | 0.86 |
| SVSEIQLMHNLGKHKKKMERVEWLRKHLQDVHNF [[Lys^15,16,17,His^27]hPTH (1-34), [Lys^15,16,17,His^27]hPTH(1-34)] | 7.47 |
| SVSEIQLMHNLGKHLNSMERVEWLQQQLQDVHNF [[Gln^25,26,27]hPTH (1-34), [Gln^25,26,27]hPTH(1-34)] | 0.41 |
| SVSEIQLMHNLGKHLNSMERVEWLRQQLQDVHNF [[Gln^26,27]hPTH(1-34)] | 1.19 |
| CC[C@H](C)[C@H](NC(=O)[C@H](CCC(=O)O)NC(=O)[C@H](CO)NC(=O)[C@@H](NC(=O)[C@@H](N)CO)C(C)C)C(=O)N[C@@H](CCC(N)=O)C(=O)N[C@@H](CC(C)C)C(=O)N[C@@H](CCSC)C(=O)N[C@@H](Cc1c[nH]cn1)C(=O)N[C@@H](CC(N)=O)C(=O)N[C@@H](CC(C)C)C(=O)NCC(=O)N[C@@H](CCCCN)C(=O)N[C@@H](Cc1c[nH]cn1)C(=O)N[C@@H](CC(C)C)C(=O)N[C@@H](CCC(N)=O)C(=O)N[C@@H](CO)C(=O)N[C@@H](CCSC)C(=O)N[C@@H](CCC(=O)O)C(=O)N[C@@H](CCCNC(=N)N)C(=O)N[C@H](C(=O)N[C@@H](CCC(=O)O)C(=O)N[C@@H](Cc1c[nH]c2ccccc12)C(=O)N[C@@H](CC(C)C)C(=O)N[C@@H](CCCNC(=N)N)C(=O)N[C@@H](CCCCN)C(=O)N[C@@H](CCCCN)C(=O)N[C@@H](CC(C)C)C(=O)N[C@@H](CCC(N)=O)C(=O)N[C@@H](CC(=O)O)C(=O)N[C@H](C(=O)N[C@@H](Cc1c[nH]cn1)C(=O)N[C@@H](CC(N)=O)C(=O)N[C@@H](Cc1ccccc1)C(=O)O)C(C)C)C(C)C [[Gln^16]hPTH(1-34)] | 1.73 |
| CC[C@H](C)[C@H](NC(=O)[C@H](CCC(=O)O)NC(=O)[C@H](CO)NC(=O)[C@@H](NC(=O)[C@@H](N)CO)C(C)C)C(=O)N[C@@H](CCC(N)=O)C(=O)N[C@@H](CC(C)C)C(=O)N[C@@H](CCSC)C(=O)N[C@@H](Cc1c[nH]cn1)C(=O)N[C@@H](CC(N)=O)C(=O)N[C@@H](CC(C)C)C(=O)NCC(=O)N[C@@H](CCCCN)C(=O)N[C@@H](Cc1c[nH]cn1)C(=O)N[C@@H](CC(C)C)C(=O)N[C@@H](CCC(=O)O)C(=O)N[C@@H](CO)C(=O)N[C@@H](CCSC)C(=O)N[C@@H](CCC(=O)O)C(=O)N[C@@H](CCCNC(=N)N)C(=O)N[C@H](C(=O)N[C@@H](CCC(=O)O)C(=O)N[C@@H](Cc1c[nH]c2ccccc12)C(=O)N[C@@H](CC(C)C)C(=O)N[C@@H](CCCNC(=N)N)C(=O)N[C@@H](CCCCN)C(=O)N[C@@H](CCCCN)C(=O)N[C@@H](CC(C)C)C(=O)N[C@@H](CCC(N)=O)C(=O)N[C@@H](CC(=O)O)C(=O)N[C@H](C(=O)N[C@@H](Cc1c[nH]cn1)C(=O)N[C@@H](CC(N)=O)C(=O)N[C@@H](Cc1ccccc1)C(=O)O)C(C)C)C(C)C [[Glu^16]hPTH(1-34)] | 1.55 |
| SVSEIQLMHNLGKHKKKMERVEWLRKKLQDVHNF [[Lys^15,16,17]hPTH (1-34), [Lys^15,16,17]hPTH(1-34)] | 7.62 |

Continued, values first:

| Biological Activity, Represented by Relative Activity to hPTH(1-34) | Molecule |
| --- | --- |
| 1.74 | CC[C@H](C)[C@H](NC(=O)[C@H](CCC(=O)O)NC(=O)[C@H](CO)NC(=O)[C@@H](NC(=O)[C@@H](N)CO)C(C)C)C(=O)N[C@@H](CCC(N)=O)C(=O)N[C@@H](CC(C)C)C(=O)N[C@@H](CCSC)C(=O)N[C@@H](Cc1c[nH]cn1)C(=O)N[C@@H](CC(N)=O)C(=O)N[C@@H](CC(C)C)C(=O)NCC(=O)N[C@@H](CCCCN)C(=O)N[C@@H](Cc1c[nH]cn1)C(=O)N[C@@H](CC(C)C)C(=O)N[C@H](C(=O)N[C@@H](CO)C(=O)N[C@@H](CCSC)C(=O)N[C@@H](CCC(=O)O)C(=O)N[C@@H](CCCNC(=N)N)C(=O)N[C@H](C(=O)N[C@@H](CCC(=O)O)C(=O)N[C@@H](Cc1c[nH]c2ccccc12)C(=O)N[C@@H](CC(C)C)C(=O)N[C@@H](CCCNC(=N)N)C(=O)N[C@@H](CCCCN)C(=O)N[C@@H](CCCCN)C(=O)N[C@@H](CC(C)C)C(=O)N[C@@H](CCC(N)=O)C(=O)N[C@@H](CC(=O)O)C(=O)N[C@H](C(=O)N[C@@H](Cc1c[nH]cn1)C(=O)N[C@@H](CC(N)=O)C(=O)N[C@@H](Cc1ccccc1)C(=O)O)C(C)C)C(C)C)[C@@H](C)O [[Thr^16]hPTH(1-34)] |
| 0.96 | CC[C@H](C)[C@H](NC(=O)[C@H](CCC(=O)O)NC(=O)[C@H](CO)NC(=O)[C@@H](NC(=O)[C@@H](N)CO)C(C)C)C(=O)N[C@@H](CCC(N)=O)C(=O)N[C@@H](CC(C)C)C(=O)N[C@@H](CCSC)C(=O)N[C@@H](Cc1c[nH]cn1)C(=O)N[C@@H](CC(N)=O)C(=O)N[C@@H](CC(C)C)C(=O)NCC(=O)N[C@@H](CCCCN)C(=O)N[C@@H](Cc1c[nH]cn1)C(=O)N[C@@H](CC(C)C)C(=O)N[C@@H](CC(N)=O)C(=O)N[C@@H](CO)C(=O)N[C@@H](CCSC)C(=O)N[C@@H](CCC(=O)O)C(=O)N[C@@H](CCCNC(=N)N)C(=O)N[C@H](C(=O)N[C@@H](CCC(=O)O)C(=O)N[C@@H](Cc1c[nH]c2ccccc12)C(=O)N[C@@H](CC(C)C)C(=O)N[C@@H](CCCNC(=N)N)C(=O)N[C@@H](CCCCN)C(=O)N[C@H](C(=O)N[C@@H](CC(C)C)C(=O)N[C@@H](CCC(N)=O)C(=O)N[C@@H](CC(=O)O)C(=O)N[C@H](C(=O)N[C@@H](Cc1c[nH]cn1)C(=O)N[C@@H](CC(N)=O)C(=O)N[C@@H](Cc1ccccc1)C(=O)O)C(C)C)[C@@H](C)O)C(C)C [[Thr^27]hPTH(1-34)] |
| 1.49 | SVSEIQLMHNLGKHKKSMERVEWLRKHLQDVHNF [[Lys^15,16,His^27]hPTH(1-34)] |
| 1.82 | CC[C@H](C)[C@H](NC(=O)[C@H](CCC(=O)O)NC(=O)[C@H](CO)NC(=O)[C@@H](NC(=O)[C@@H](N)CO)C(C)C)C(=O)N[C@@H](CCC(N)=O)C(=O)N[C@@H](CC(C)C)C(=O)N[C@@H](CCSC)C(=O)N[C@@H](Cc1c[nH]cn1)C(=O)N[C@@H](CC(N)=O)C(=O)N[C@@H](CC(C)C)C(=O)NCC(=O)N[C@@H](CCCCN)C(=O)N[C@@H](Cc1c[nH]cn1)C(=O)N[C@@H](CC(C)C)C(=O)N[C@@H](CCCN)C(=O)N[C@@H](CO)C(=O)N[C@@H](CCSC)C(=O)N[C@@H](CCC(=O)O)C(=O)N[C@@H](CCCNC(=N)N)C(=O)N[C@H](C(=O)N[C@@H](CCC(=O)O)C(=O)N[C@@H](Cc1c[nH]c2ccccc12)C(=O)N[C@@H](CC(C)C)C(=O)N[C@@H](CCCNC(=N)N)C(=O)N[C@@H](CCCCN)C(=O)N[C@@H](CCC(N)=O)C(=O)N[C@@H](CC(C)C)C(=O)N[C@@H](CCC(N)=O)C(=O)N[C@@H](CC(=O)O)C(=O)N[C@H](C(=O)N[C@@H](Cc1c[nH]cn1)C(=O)N[C@@H](CC(N)=O)C(=O)N[C@@H](Cc1ccccc1)C(=O)O)C(C)C)C(C)C [[Orn^16,Gln^27]hPTH(1-34), [Orn^16,Gln^27]hPTH(1-45)] (H-SVSEIQLMHNLGKHL[Orn]SMERVEWLRKQLQDVHNF-OH) |
